Assay results reported in patent publication US20250283872A1, “EXPRESSION SYSTEMS FOR THE ALPHA2ALPHA5BETA2 NICOTINIC ACETYLCHOLINE RECEPTOR AND METHODS OF USE THEREOF” (Janssen Pharmaceutica NV, priority 2021, published 2025).

Tests used:
α2α5β2 nAChR = α2α5β2 nAChR (Homo sapiens, UniProt P17787+P30532+Q15822)
Description: (§1) Then transfer the plate to 30° C. with 5% CO2 in a humidified atmosphere for 24-48 hours.

α2β2 nAChR = α2β2 nAChR (Homo sapiens, UniProt P17787+Q15822); settings: HEK293T cells; co-transfection with FAM163B or TMIE (plus SAT1+CHAT) versus SAT1+CHAT
Description: as §1

Chain of α2α5β2 nAChR (Q15822 27-529): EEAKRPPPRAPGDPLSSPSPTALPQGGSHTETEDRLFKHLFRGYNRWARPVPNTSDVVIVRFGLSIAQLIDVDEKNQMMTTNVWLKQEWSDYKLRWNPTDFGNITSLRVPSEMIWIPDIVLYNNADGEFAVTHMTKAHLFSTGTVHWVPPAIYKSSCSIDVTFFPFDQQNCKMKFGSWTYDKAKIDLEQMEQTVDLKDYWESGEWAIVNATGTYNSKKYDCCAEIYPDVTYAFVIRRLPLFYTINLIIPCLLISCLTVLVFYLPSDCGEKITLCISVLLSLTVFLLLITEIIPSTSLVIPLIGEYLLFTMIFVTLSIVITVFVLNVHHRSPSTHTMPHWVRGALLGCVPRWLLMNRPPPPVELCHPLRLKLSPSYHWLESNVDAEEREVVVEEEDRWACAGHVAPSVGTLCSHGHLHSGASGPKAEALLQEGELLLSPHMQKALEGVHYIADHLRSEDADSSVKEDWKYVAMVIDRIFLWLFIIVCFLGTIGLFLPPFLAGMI
Chain of α2α5β2 nAChR (P30532 23-468): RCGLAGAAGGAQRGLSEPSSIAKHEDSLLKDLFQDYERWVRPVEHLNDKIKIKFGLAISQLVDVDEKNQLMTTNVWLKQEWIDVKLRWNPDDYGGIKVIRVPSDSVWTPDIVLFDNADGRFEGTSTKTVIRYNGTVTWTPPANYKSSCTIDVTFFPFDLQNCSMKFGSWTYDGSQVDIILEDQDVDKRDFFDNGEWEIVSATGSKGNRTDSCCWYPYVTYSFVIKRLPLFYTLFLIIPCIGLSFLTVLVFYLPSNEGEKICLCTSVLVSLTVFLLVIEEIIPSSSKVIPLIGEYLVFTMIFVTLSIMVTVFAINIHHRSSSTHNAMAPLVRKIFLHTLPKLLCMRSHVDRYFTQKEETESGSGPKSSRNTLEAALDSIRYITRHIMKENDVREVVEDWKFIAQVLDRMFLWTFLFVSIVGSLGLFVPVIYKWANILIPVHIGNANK
Chain of α2α5β2 nAChR (P17787 26-502): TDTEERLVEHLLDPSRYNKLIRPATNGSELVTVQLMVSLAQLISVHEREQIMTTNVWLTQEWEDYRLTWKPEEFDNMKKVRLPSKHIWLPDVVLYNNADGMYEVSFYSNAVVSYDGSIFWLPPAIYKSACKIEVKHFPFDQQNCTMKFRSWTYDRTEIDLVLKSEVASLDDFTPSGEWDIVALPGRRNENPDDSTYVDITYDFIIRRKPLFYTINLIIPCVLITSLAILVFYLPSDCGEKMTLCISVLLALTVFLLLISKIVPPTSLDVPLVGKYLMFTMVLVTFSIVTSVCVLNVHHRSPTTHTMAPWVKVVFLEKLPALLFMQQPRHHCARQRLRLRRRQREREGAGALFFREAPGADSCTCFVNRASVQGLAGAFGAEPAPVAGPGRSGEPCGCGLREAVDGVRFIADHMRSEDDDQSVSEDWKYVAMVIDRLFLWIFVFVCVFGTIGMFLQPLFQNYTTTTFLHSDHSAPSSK
Chain of α2β2 nAChR (Q15822 27-529): as the sequence (Q15822 27-529) above
Chain of α2β2 nAChR (P17787 26-502): as the sequence (P17787 26-502) above

CN1CCCC1c1cccnc1 (stereo not drawn) [nicotine, Nicotine]
nicotine potency (nicotine-evoked calcium flux, FIG. 2) (α2α5β2 nAChR; HEK293T cells, co-transfection with FAM163B or TMIE (plus SAT1+CHAT) versus SAT1+CHAT): left shifted | EC80 (nicotine-evoked α2α5β2 nAChR mediated calcium flux) (α2α5β2 nAChR; recombinant cells, Ca5 dye, FLIPR TETRA): 1000 nM | nicotine potency (nicotine-evoked calcium flux, FIG. 2) (α2β2 nAChR): left shifted
